Broadly, the IC50 is the concentration that inhibits the measured activity by half. A word on the Solubility: it is the concentration that dissolves in the medium under given conditions. A low value points to a poorly soluble substance.

Read-outs that look alike come from different tables or passages of the source.

Consider 2 compounds from patent US9518008B2, “(1S,2S,3S,4R)-3-[(1S)-1-acetylamino-2-ethyl-butyl]-4-uanidino-2-hydroxyl-cyclopentyl-1-carboxylic acid hydrates pharmaceutical uses thereof” (Institute of Pharmacology and Toxicology Academy of …, priority 2007, dated 2016).

Data set [1] can be described thus: Determination of hygroscopicity (high humidity test). Format: physicochemical. As to the method:
The hygroscopicity of the compound of the invention can be tested by a standard hygroscopicity test method. For example, the compound is stored in a sealed vessel at room temperature at a relative humidity of 92.5%, 80% or 75%, and the change in moisture content of the compound is tested by sampling at regular intervals.
At the 5th and 10th days, the products were sampled and determined in aspect of important items relating to stability investigation. […] If the weight gain of a product due to moisture absorption was more than 5%, the product was further experimented according to the same method under a relative humidity of 75%±5%. If the weight gain of a product due to moisture absorption was less than 5%, and other items thereof under investigation met the relevant requirements, no more experiment was needed. The humidity-constant condition could be achieved by placing a saturated saline solution at the lower part of a sealed vessel, e.g., a desiccator, and a NaCl saturated solution (15.5-60° C., a relative humidity of 75%±1%) or a KNO3 saturated solution (25° C., a relative humidity of 92.5%) may be selected according to the requirement of different relative humidity.

For data set [2], the system named is influenza virus strain FM1 (H1N1). Description: Anti-influenza activity in infected mice (survival). Format: in vivo, mice (BALB/C). Particulars: 5 times, 14th day after infection. As to the method:
A virus drip is prepared typically by including 500 pfu (plaque forming unit) of mice-compliance influenza virus strain in 50 μl phosphate buffer (containing 0.42% bovine serum albumin), and then dropped into nasal cavity of mice to infect them (BALB/C, female, aged 5-6 weeks, weighted 20 g). The compound of the invention is suspended in physiological saline to obtain different doses, typically from 2.5 mg/kg to 40 mg/kg, and is administered to the mice at different time before and after the viral infection, typically administered by intraperitoneal injection for 5 times, i.e., 1 hour, and 2, 3, 4, 5 days after the viral infection. The assay is performed by using 8 or 12, typically 10 mice. The result is expressed by the ratio of the number of survival mice the 14th day after the viral infection to the number of the mice in assay.
A solution was prepared by including 500 pfu (plaque forming unit) of mice-compliance influenza virus strain FM1 (H1N1) in 50 μl phosphate buffer (containing 0.42% bovine serum albumin), and then dropped into nasal cavity of mice (BALB/C, female, aged 5-6 weeks, weighted 20 g) to infect them with an infective dose of 23.7LD50. The compound of the invention was suspended in physiological saline, and was administered in doses of 2.5 mg/kg, 5 mg/kg, 10 mg/kg, 20 mg/kg to the mice by intraperitoneal injection for 5 times, i.e., 1 hour, and 2, 3, 4, 5 days after the viral infection, respectively. The assay was performed by 10 mice. The result was expressed by the ratio of the number of survival mice the 14th day after the viral infection to the number of the mice in assay.

Data set [3] is described as follows: Stability of RWJ270201 in aqueous solution. Format: physicochemical. The note with it: as shown by study.
Data set [4] deals with NA of 7 influenza A virus stains. The note with it: 7 influenza A virus strains; cited from earlier work.
The test system of data set [5] is NA of 4 influenza B virus strains. Particulars: cited from earlier work.
The subject of data set [6] is influenza virus strain A/HongKong/156/97 (H5N1). The note with it: cited from earlier work.
The subject of data set [7] is influenza virus strain B/Hong Kong/5/72. Particulars: 1 mg/kg/day; cited from earlier work.
Data set [8] has as its system influenza virus strain A/Bayern/07/95 (H1N1). Particulars: 10 mg/kg/day; cited from earlier work.
In data set [9] the test system is influenza virus strain A/NWS/33 (H1N1). Particulars: 10 mg/kg/day; cited from earlier work.
The conditions of data set [10]: rats, 1000 mg/kg/day for 5 days; cited from earlier work.
Data set [11] is described as follows: Determination of solubility. Particulars: Solvent: Water; 25±2° C. As to the method:
According to the invention, the solubility of the compound of the invention can be tested by using a standard solubility test method.
While vigorously stirring for 30 seconds every 5 minutes, the dissolution of the powder was observed within 30 minutes.

Setting [12] is: Relative humidity 92.5%, 25° C.

As for `CCC(CC)[C@H](NC(C)=O)[C@H]1[C@H](O)[C@@H](C(=O)O)C[C@H]1NC(=N)N` [Anhydrous, (1S,2S,3S,4R)-3-[(1S)-1-acetylamino-2-ethyl-butyl]-4-guanidino-2-hydroxy-cyclopentyl-1-carboxylic acid, reference compound], the “Hygroscopicity at the 5th day” value in data set [1] (Relative humidity 75%) was 7.23%; in data set [1] (setting [12]), 8.38%. Further, the “Hygroscopicity at the 10th day” value in data set [1] (Relative humidity 75%) was found to be 12.88%; in data set [1] (setting [12]) it was 13.53%. For the same compound, the “hygroscopicity” value in data set [1] (as shown by study) is given as “easily hygroscopic”. Moreover, the weight gain result in data set [1] (ten-day observation test, sealed vessel, room temperature, high relative humidity) is “about 13.53%”. Further, the Survival number in [2] (2.5 mg/kg intraperitoneal) is listed as 5/10; in data set [2] (5.0 mg/kg intraperitoneal) it was 7/10; in [2] (10 mg/kg intraperitoneal) it was 7/10; in [2] (20 mg/kg intraperitoneal), 9/10. The Survival rate was 50% in data set [2] (2.5 mg/kg intraperitoneal); 70% in [2] (5.0 mg/kg intraperitoneal); 70% in data set [2] (10 mg/kg intraperitoneal); 90% in [2] (20 mg/kg intraperitoneal); “up to 100%” in data set [6] (group of 10 mg/kg/day); “up to 70%” in [6] (mouse, in vivo, 0.1 mg/kg/day). Besides, the “stability in aqueous solution” value in [3] is “unstable in aqueous solution”. Further, the IC50 in data set [4] is 0.1 to 1.4 nM; in data set [5], 0.6 to 11 nM. Also, the death rate entry in data set [6] (infected mice) is “markedly reduce the death rate”; in [7] it was “reduce the death rate”; in data set [9] it was “reduce the death rate”. In addition, the “diffusion of virus to brain tissue” value in data set [6] (infected mice) is recorded as “prevent the diffusion of virus to brain tissue”. For the same compound, in [6] (infected mice), the “virus titer in lung tissue” value is listed as “markedly reduce virus titer in lung tissue”. Further, in [7], the arterial oxygen saturation result is “prevent the reduction in arterial oxygen saturation”. Moreover, in [7], the “efficacy compared with oseltamivir” value is given as “more effective than oseltamivir”. Besides, the lung consolidation result in [7] was “inhibit lung consolidation”. Also, in [8], the effect on infection entry is reported as “effectively antagonize the infection”. The toxic side effect entry in data set [10] is “no toxic side effect was found”.
Compound “(1S,2S,3S,4R)-3-[(1S)-1-acetylamino-2-ethyl-butyl]-4-guanidino-2-hydroxy-cyclopentyl-1-carboxylic acid dihydrate” had a Solubility in data set [11] of 50 mg/mL. Also, in [1] (Relative humidity 75%), the “Hygroscopicity at the 5th day” value was determined as 2.21% and the “Hygroscopicity at the 10th day” value was found to be 2.54%. Besides, in data set [1] (setting [12]), the “Hygroscopicity at the 5th day” value came to 2.54% and the “Hygroscopicity at the 10th day” value stood at 2.98%.
